Test results as given in patent publication US20260263433A1, “TETRAZOLIUM AND FORMAZAN COMPOUNDS AND METHODS OF MAKING AND USING THE SAME” (ARIZONA BOARD OF REGENTS ON BEHALF OF THE UNIVERSITY OF …, priority 2022, published 2026).
Values belong to the compound of their own block, whether it stands above or below them.

Legend:
[1] = Reduction of tetrazolium salts by cyclic voltammetry in buffered aqueous solution; format: physicochemical; conditions: 50 mM PBS pH 7.4, 25° C., K3[Fe(CN)6] reference, irreversible reduction
Method: The reduction of all the tetrazolium salts was investigated by cyclic voltammetry in buffered aqueous solutions (50 mM phosphate buffered saline solution, pH 7.4, K3[Fe(CN)6] as reference E0=0.430 V vs. NHE, 25° C.). Each compound presents an irreversible reduction at a potential that varies considerably depending on the identity of the aryl substituents on the tetrazolium core. Although the peaks are rather broad and likely susceptible to shifts depending on the specific experimental conditions, the peak potentials (Table 1, referenced to NHE) of some of these tetrazolium compounds indicate that they are reduced outside the biologically relevant window. […] On the other hand, the fact that the tetrazolium compounds are harder to reduce relative to MTT (with the exception of the benzothiazole derivative 1b) makes them well suited for intracellular activation in the reducing microenvironment of malignant cells. Compounds 2b, 4b, 6b and 7b are likely to be reduced intracellularly to the formazan species.

A2780 (Ovary) = assay: Antiproliferative activity, resazurin readout, A2780; format: cell-based, human; conditions: for IC50: 72 h incubation, 0.032-100 μM, mean ± SDM, n = 3
Method: (§1) Once the stability data and the information on the reduction and iron binding of the new cohort of tetrazolium salts had been obtained, the antiproliferative activity of the new cohort was assessed in a panel of mammalian cell lines. Cancer cells require more iron than normal cells in order to sustain fast proliferation rate. Therefore, compounds that interfere with intracellular iron availability display antiproliferative activity.^12 Indeed iron chelation and prochelation strategies could provide new therapeutic avenues in anticancer drug discovery.^4
(§2) Cancer cell lines of different origin were selected (ovarian A2780, breast MDAMB-231, colon Caco-2, and lung A549), and a normal cell line (MRC-5, lung fibroblasts) was selected as a comparison.
(§3) Because the colorimetric MTT reagent is one of the compounds being tested in this panel, the reduction of resazurin to brightly fluorescent resorufin was chosen as a readout for the assessment of antiproliferative activity.

MDA-MB-231 (Breast) = assay: Antiproliferative activity, resazurin readout, MDA-MB-231; format: cell-based, human; conditions: 72 h incubation, 0.032-100 μM, mean ± SDM, n = 3
Method: as §1, §2, §3

Caco-2 (Colon) = assay: Antiproliferative activity, resazurin readout, Caco-2; format: cell-based, human; conditions: 72 h incubation, 0.032-100 μM, mean ± SDM, n = 3
Method: as §1, §2, §3

A549 (Lung) = assay: Antiproliferative activity, resazurin readout, A549; format: cell-based, human; conditions: 72 h incubation, 0.032-100 μM, mean ± SDM, n = 3
Method: as §1, §2, §3

MRC-5 (Normal lung) = assay: Antiproliferative activity, resazurin readout, MRC-5 normal lung fibroblasts; format: cell-based, human; conditions: 72 h incubation, 0.032-100 μM, mean ± SDM, n = 3
Method: as §1, §2, §3

[2] = Stability in fetal bovine serum monitored by HPLC; format: in vitro ADME; conditions: 24 h
Method: FIGS. 5A and 5B depict the assessment of stability of the tetrazolium-based prochelators in fetal bovine serum (FBS) for a period of 24 h.
The stability of exemplary tetrazolium compounds was tested in fetal bovine serum and monitored by HPLC analysis.

[3] = system: panel of mammalian cell lines; assay: Antiproliferative activity across the panel of cell lines; format: cell-based, human; conditions: 72 h, tested cell lines
Method: as §1, §2, §3

[4] = system: A2780 ovarian cancer cells; assay: Effect of iron supplementation on toxicity, LIVE/DEAD stain, flow cytometry; format: cell-based, human; conditions: compounds 40 μM with or without ferric ammonium citrate 50 μM or holo-transferrin 50 μM, 48 h
Method: FIGS. 6A-6B depict the effects of iron supplementation on toxicity in A2780 ovarian cancer cells. The percentage of dead cells was determined using the LIVE/DEAD fixable stain as measured by flow cytometry. FIG. 6A depicts the quantification of dead cells after treating in the presence of test compounds (40 μM) with or without ferric ammonium citrate (FAC, 50 μM) for 48 h. FIG. 6B depicts the quantification of dead cells after treating in the presence of test compounds (40 μM) with or without holo-transferrin (holo-TF, 50 μM) for 48 h. Experiments were conducted in triplicate and the values shown are averages ±standard deviation. **p<0.01, ***p<0.001, ****p<0.0001.
The biological activity of the tetrazolium and formazan compounds was investigated in A2780 cells, in which they presented the highest antiproliferative activity. In particular, experiments were performed to confirm that the antiproliferative activity of these compounds is associated with the availability of intracellular iron.

[5] = Fe(II) coordination in buffered aqueous solution (optical absorption changes); format: physicochemical; conditions: absorption 500-800 nm
Method: These two compounds were retained in the experiments as controls.
The tetrazolium salts (FIGS. 4A-4B) were synthesized from the formazans by the process outlined in FIG. 4C, which included oxidation with N-bromo-succinimide. For structures featuring a 2-hydroxyphenyl group, the oxidation was carried out on methoxyphenyl precursors and followed by a demethylation step in the presence of BBr3. The tetrazolium compounds were isolated as bromide salts.

SMILES: [Br-].c1ccc(-c2nn(-c3nc4ccccc4s3)[n+](-c3ccccc3)n2)cc1 [1b]
Ered vs. NHE (peak potential Ep) [1]: 207 mV | IC50 (A2780 (Ovary)): 23 ± 3 µM | IC50 (MDA-MB-231 (Breast)): 21 ± 2 µM | IC50 (Caco-2 (Colon)): 40 ± 3 µM | IC50 (A549 (Lung)): 41 ± 3 µM | IC50 (MRC-5 (Normal lung)): 97 ± 10 µM | Stability in serum [2]: significant degradation | Antiproliferative activity / toxicity in the cell panel, in words [3]: moderate antiproliferative activities

SMILES: [Br-].c1ccc(-c2nn(-c3ccccn3)[n+](-c3ccccc3)n2)cc1 [2b]
Ered vs. NHE (peak potential Ep) [1]: −130 mV | IC50 (A2780 (Ovary)): 16 ± 3 µM | IC50 (MDA-MB-231 (Breast)): 16 ± 2 µM | IC50 (Caco-2 (Colon)): 13 ± 2 µM | IC50 (A549 (Lung)): 17 ± 2 µM | IC50 (MRC-5 (Normal lung)): > 100 µM | Effect of iron supplementation on cell death [4]: could be rescued by iron supplementation | Antiproliferative activity / toxicity in the cell panel, in words [3]: promising antiproliferative activities

SMILES: Oc1ccccc1-n1nc(-c2ccccc2)n[n+]1-c1ccccc1.[Br-] [3b]
Ered vs. NHE (peak potential Ep) [1]: −328 mV | IC50 (A2780 (Ovary)): > 100 µM | IC50 (MDA-MB-231 (Breast)): > 100 µM | IC50 (Caco-2 (Colon)): > 100 µM | IC50 (A549 (Lung)): > 100 µM | IC50 (MRC-5 (Normal lung)): > 100 µM | Antiproliferative activity / toxicity in the cell panel, in words [3]: low cytotoxicity

SMILES: Oc1ccccc1-c1nn(-c2ccccn2)[n+](-c2ccccc2)n1.[Br-] [4b]
Ered vs. NHE (peak potential Ep) [1]: −102 mV | IC50 (A2780 (Ovary)): 12 ± 3 µM | IC50 (MDA-MB-231 (Breast)): 17 ± 2 µM | IC50 (Caco-2 (Colon)): 29 ± 3 µM | IC50 (A549 (Lung)): 28 ± 4 µM | IC50 (MRC-5 (Normal lung)): > 100 µM | Effect of iron supplementation on cell death [4]: could be rescued by iron supplementation | Antiproliferative activity / toxicity in the cell panel, in words [3]: promising antiproliferative activities

SMILES: c1ccc(N=NC(=NNc2ccccc2)c2ccccn2)cc1 [6a]
Iron binding [5]: did not show any indication of iron binding

SMILES: [Br-].c1ccc(-n2nc(-c3ccccn3)n[n+]2-c2ccccc2)cc1 [6b]
Ered vs. NHE (peak potential Ep) [1]: −241 mV | IC50 (A2780 (Ovary)): 74 ± 4 µM | IC50 (MDA-MB-231 (Breast)): > 100 µM | IC50 (Caco-2 (Colon)): > 100 µM | IC50 (A549 (Lung)): > 100 µM | IC50 (MRC-5 (Normal lung)): > 100 µM | Effect of iron supplementation on cell death [4]: not altered by iron supplementation | Antiproliferative activity / toxicity in the cell panel, in words [3]: low toxicity

SMILES: Oc1ccccc1C(N=Nc1ccccc1)=NNc1ccccc1 [7a]
Iron binding [5]: did not show any indication of iron binding

SMILES: O=C(O)c1ccc(-n2nc(-c3ccccc3O)nc2-c2ccccc2O)cc1 [DFX, deferasirox, reference compound]
IC50 (A2780 (Ovary); Homo sapiens, A2780): 15 ± 0.5 µM | IC50 (MDA-MB-231 (Breast); Homo sapiens, MDA-MB-231): 17 ± 1 µM | IC50 (Caco-2 (Colon); Homo sapiens, Caco-2): 67 ± 2 µM | IC50 (A549 (Lung); Homo sapiens, A549): 21 ± 3 µM | IC50 (MRC-5 (Normal lung); Homo sapiens, MRC5): > 100 µM

SMILES: c1ccc(NN=C(N=Nc2nccc3ccccc23)c2ccccc2)cc1 [IQF]
IC50 (A2780 (Ovary)): 0.7 ± 0.1 µM | IC50 (MDA-MB-231 (Breast)): 1.4 ± 0.5 µM | Antiproliferative activity / toxicity in the cell panel, in words [3]: sub-micromolar or low-micromolar

SMILES: [Br-].c1ccc(-c2nn(-c3nccc4ccccc34)[n+](-c3ccccc3)n2)cc1 [IQT]
IC50 values in A2780 cell lines, in words (A2780 (Ovary)): sub-micromolar | IC50 (A2780 (Ovary)): 0.5 ± 0.1 µM | IC50 (MRC-5 (Normal lung)): 14 ± 2 µM

SMILES: Cc1nc(N=NC(=NNc2ccccc2)c2ccccc2)sc1C [MTF, reference compound]
Iron binding [5]: coordinate Fe(II)

SMILES: Cc1nc(-[n+]2nc(-c3ccccc3)nn2-c2ccccc2)sc1C.[Br-] [MTT, reference compound]
Ered vs. NHE (peak potential Ep) [1]: 94 mV | IC50 (A2780 (Ovary)): 45 ± 9 µM | IC50 (MDA-MB-231 (Breast)): 48 ± 7 µM | IC50 (Caco-2 (Colon)): 92 ± 7 µM | IC50 (A549 (Lung)): 44 ± 9 µM | IC50 (MRC-5 (Normal lung)): 32 ± 5 µM | Stability in serum [2]: significant degradation | Antiproliferative activity / toxicity in the cell panel, in words [3]: moderate antiproliferative activities

SMILES: c1ccc(NN=C(N=Nc2ccc3ccccc3n2)c2ccccc2)cc1 [QF]
IC50 (A2780 (Ovary)): 14 ± 2 µM | IC50 (MDA-MB-231 (Breast)): 7 ± 2 µM | IC50 (MRC-5 (Normal lung)): 89 ± 9 µM | Antiproliferative activity / toxicity in the cell panel, in words [3]: sub-micromolar or low-micromolar

SMILES: [Br-].c1ccc(-c2nn(-c3ccc4ccccc4n3)[n+](-c3ccccc3)n2)cc1 [QT]
IC50 values in A2780 cell lines, in words (A2780 (Ovary)): sub-micromolar | IC50 (A2780 (Ovary)): 0.8 ± 0.1 µM | IC50 (MDA-MB-231 (Breast)): 0.3 ± 0.1 µM | IC50 (MRC-5 (Normal lung)): 3.5 ± 0.8 µM

SMILES: c1ccc(NN=C(N=Nc2cnc3ccccc3n2)c2ccccc2)cc1 [QXF]
IC50 (A2780 (Ovary)): 9 ± 2 µM | IC50 (MDA-MB-231 (Breast)): 22 ± 3 µM | IC50 (MRC-5 (Normal lung)): 11 ± 2 µM | Antiproliferative activity / toxicity in the cell panel, in words [3]: sub-micromolar or low-micromolar

SMILES: c1ccc(-c2nn(-c3cnc4ccccc4n3)[n+](-c3ccccc3)n2)cc1 [QXT]
IC50 (A2780 (Ovary)): 19 ± 2 µM | IC50 (MDA-MB-231 (Breast)): 26 ± 3 µM | IC50 (MRC-5 (Normal lung)): 45 ± 8 µM

SMILES: c1ccc(NN=C(N=Nc2ncc3ccccc3n2)c2ccccc2)cc1 [QZF]
IC50 (A2780 (Ovary)): 0.6 ± 0.1 µM | IC50 (MDA-MB-231 (Breast)): 1.8 ± 0.5 µM | IC50 (MRC-5 (Normal lung)): 4.2 ± 0.3 µM | Antiproliferative activity / toxicity in the cell panel, in words [3]: sub-micromolar or low-micromolar

Further lines, with some results ahead:

Ered vs. NHE (peak potential Ep) [1]: −380 mV | IC50 (A2780 (Ovary)): 90 ± 10 µM | IC50 (MDA-MB-231 (Breast)): > 100 µM | IC50 (Caco-2 (Colon)): > 100 µM | IC50 (A549 (Lung)): > 100 µM
SMILES: Oc1ccccc1-n1nc(-c2ccccn2)n[n+]1-c1ccccc1.[Br-] [5b]
IC50 (MRC-5 (Normal lung)): > 100 µM | Antiproliferative activity / toxicity in the cell panel, in words [3]: low cytotoxicity

Ered vs. NHE (peak potential Ep) [1]: −187 mV | IC50 (A2780 (Ovary)): 74 ± 7 µM | IC50 (MDA-MB-231 (Breast)): > 100 µM | IC50 (Caco-2 (Colon)): > 100 µM | IC50 (A549 (Lung)): > 100 µM
SMILES: Oc1ccccc1-c1nn(-c2ccccc2)[n+](-c2ccccc2)n1.[Br-] [7b]
IC50 (MRC-5 (Normal lung)): > 100 µM | Antiproliferative activity / toxicity in the cell panel, in words [3]: low toxicity
